This passage reports relative viability results from the supplement of paper PMC10307832.

Assay in all cases: relative viability (nuclei count vs DMSO), 5 days (fraction); higher = more cells survive
Compound in test [1]: CCn1c(-c2nonc2N)nc2cnc(Oc3cccc(NC(=O)c4ccc(OCCN5CCOCC5)cc4)c3)cc21 + CC(=O)Nc1cccc(-n2c(=O)n(C3CC3)c(=O)c3c(Nc4ccc(I)cc4F)n(C)c(=O)c(C)c32)c1 [Trametinib] (partner 0.02 µM)
The essentials:
(§1)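 After 5 days of treatment, lung cancer cells in 1536-well plates were fixed and stained in a single step (final 0.05% Triton X-100, 1% formaldehyde, 1 ug/ml Hoechst) and their nuclei counted on 4× images. Treatment had been applied by pin tool the day after seeding as one drug alone or as a fixed anchor-drug dose with five library-drug doses (not always all listed) in √10 steps. Relative viability is the nuclei count of treated wells divided by that of vehicle wells, and values are medians of duplicate plates.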

Compound in test [2]: CCC1=CN=CN=C1N2CCN(CC2)CC3=NC4=C(N3)C=C(C=C4)C(F)(F)F + CS(=O)(=O)CCNCc1ccc(-c2ccc3ncnc(Nc4ccc(OCc5cccc(F)c5)c(Cl)c4)c3c2)o1 [Lapatinib] (partner 2 µM)
The essentials:
as §1

Compound in test [3]: CCC1=CN=CN=C1N2CCN(CC2)CC3=NC4=C(N3)C=C(C=C4)C(F)(F)F + Nc1nc2[nH]cc(CCc3ccc(C(=O)N[C@@H](CCC(=O)O)C(=O)O)cc3)c2c(=O)[nH]1 [Pemetrexed] (partner 0.2 µM)
The procedure, abridged: as §1

Compound in the test “Mirin + Tozasertib”: N=C1NC(=O)/C(=C/c2ccc(O)cc2)S1 [Mirin] + Cc1cc(Nc2cc(N3CCN(C)CC3)nc(Sc3ccc(NC(=O)C4CC4)cc3)n2)n[nH]1 [Tozasertib] (partner 0.1 µM)
The procedure, abridged: as §1

In the case of UMC-11, the relative viability in test [1] (first compound 0.04 µM) is 0.609; in test [1] (first compound 0.1265 µM), 0.607; in test [1] (first compound 0.4 µM) it was 0.298; in test [1] (first compound 1.265 µM), 0.0887; in test [1] (first compound 4 µM), 0.963; in test [2] (first compound 0.04 µM) it was 0.808. The relative viability in test [2] (first compound 0.1265 µM) stood at 0.974; in test [2] (first compound 0.4 µM) it was 0.905; in test [2] (first compound 1.265 µM), 0.719; in test [2] (first compound 4 µM), 0.977; in test [3] (first compound 0.04 µM), 0.772; in test [3] (first compound 0.1265 µM), 0.767. Moreover, the relative viability was 0.83 in test [3] (first compound 0.4 µM); 0.761 in test [3] (first compound 1.265 µM); 0.724 in test [3] (first compound 4 µM); 0.196 with Mirin + Tozasertib (first compound 0.25 µM); 0.203 with Mirin + Tozasertib (first compound 2.5 µM); 0.181 with Mirin + Tozasertib (first compound 7.906 µM). For the same cell line, in the test with Mirin + Tozasertib (first compound 25 µM), the relative viability is 0.189.
